According to patent US11007524B2, “Automatic microfluidic system for rapid personalized drug screening and testing method for personalized antibiotic susceptibility” (National Tsing Hua University, priority 2019, dated 2021):
Values after ≈ are worked out from the molar mass of the structure shown.

What was measured:
[1] = tested on: vancomycin-intermediate Staphylococcus aureus (VISA); test: Minimum inhibitory concentration by automatic microfluidic system (Example 9), resazurin colour change; type: cell-based
Description: A determination of minimum inhibitory concentration is performed by using the microfluidic chip 100 of FIG. 1 in cooperated with the testing method 200 for personalized antibiotic susceptibility of FIG. 5. The details of the testing method 200 has been described as mentioned above so that the same process will not be further illustrated herein.
In experimental, the microfluidic chip 100 is divided into a reaction zone 1001 and a reaction zone 1002 along line 10-10 by using the fluid storage chamber 111a and the fluid storage chamber 111b as a center. The reaction zone 1001 is utilized for determining the minimum inhibitory concentration of vancomycin for the vancomycin-intermediate Staphylococcus aureus, and the reaction zone 1002 is utilized for determining the minimum inhibitory concentration of gentamicin for the vancomycin-intermediate Staphylococcus aureus. After 4 hours of incubation of the reaction solutions including the resazurin, with different concentrations, the color of the reaction solution will be gradually changed to red when the vancomycin-intermediate Staphylococcus aureus grows and can be observed directly through the microfluidic chip 100.
In such the example, the reference numerals of the reaction chambers 131 of the microfluidic chip 100 are reassigned to the reaction chambers 131a to 131l. […]

[2] = tested on: vancomycin-intermediate Staphylococcus aureus (VISA); test: Minimum inhibitory concentration by broth microdilution (Comparative Example 1); type: cell-based; details: same conditions
From the text: Furthermore, the present testing further includes Comparative Example 1.

Molecule	MIC ([1]; Staphylococcus aureus, VISA, 4 h, read-out: minimum inhibitory concentration, Example 9)	MIC ([2]; Staphylococcus aureus)	minimum inhibitory concentration, Example 9 ([1]; microfluidic chip, VISA 1500 CFU, 3 μL reaction solution, 4 hours of incubation, resazurin)	minimum inhibitory concentration, Comparative Example 1 [2]
CN[C@H](CC(C)C)C(=O)N[C@H]1C(=O)N[C@@H](CC(N)=O)C(=O)N[C@H]2C(=O)N[C@H]3C(=O)N[C@H](C(=O)N[C@H](C(=O)O)c4cc(O)cc(O)c4-c4cc3ccc4O)[C@H](O)c3ccc(c(Cl)c3)Oc3cc2cc(c3O[C@@H]2O[C@H](CO)[C@@H](O)[C@H](O)[C@H]2O[C@H]2C[C@](C)(N)[C@H](O)[C@H](C)O2)Oc2ccc(cc2Cl)[C@H]1O [Vancomycin, vancomycin]	2.16 µg/mL (≈ 1.49 µM)	2 µg/mL (≈ 1.38 µM)		
gentamicin			>7.52 µg/mL	>8 µg/mL
